For one assay, the target named is T1, PARP (Mus musculus, UniProt P11103).
T1 construct: PARP Activity in Cultured Macrophages, Using a Whole-Cell Based Assay; endogenous in cells; host or cells: murine RAW macrophages (ATCC)
Nature of the assay: PARP activity in cultured macrophages, whole-cell based assay (3H-NAD+ incorporation after hydrogen peroxide). The conditions noted are these: murine RAW macrophages, 1 hour pretreatment, hydrogen peroxide 0.5 mM. How it is done: Effect of Tetracyclic 1H-indeno[1,2-b]pyridine-2(511)-one Analogs on PARP Activity in Cultured Macrophages, Using a Whole-Cell Based Assay
The murine RAW macrophages (ATCC, American Type Culture Collection, Manassas, Va.) were grown in […] (Invitrogen Life Technologies; Carlsbad, Calif.) medium supplemented with 10% heat-inactivated FBS, 2 mM L-glutamine, and 100 U/ml of penicillin and streptomycin. Cells, between passages 5 and 15, were seeded at a density of 250,000 cells/well in 12 well plates and allowed to grow 48 hours before use. Growth medium was changed on the day of use. Cells were treated with a tetracyclic 1H-indeno[1,2-b]pyridine-2(5H)-one analog diluted in a growth medium supplemented with 10% fetal bovine serum (FBS) for 1 hour prior to the addition of hydrogen peroxide (0.5 mM) for a further 25 minutes. For the measurement of PARP activity, media was removed and replaced with 0.5 ml of the assay buffer (56 mM HEPES-pH 7.5, 28 mM KCl, 28 mM NaCl, 2 mM MgCl2, 0.01% digitonin, and 0.5 μCi/ml of ^3H-NAD^+) for 20 minutes. After aspirating the assay buffer, cells were lysed and transferred to eppendorf tubes containing 250 μl of 50% ice-cold trichloroacetic acid (TCA), which were then placed at 4° C. for 4 hours. Samples were centrifuged at 10,000 g for 10 minutes and supernatant removed. The pellets were washed twice with 500 μl of ice-cold 5% w/v TCA. The pellets were then solubilized in 250 μl of NaOH (0.1 M) containing 2% SDS overnight at 37° C. and the PARP activity was then determined by measuring the radioactivity incorporated using a Wallac scintillation counter. The solubilized protein (250 μl) was mixed with 5 ml of scintillation fluid (ScintiSafe Plus, Fisher Scientific) before being counted for 3 minutes. EC50 values were determined from a dose-response curve.

Another assay concerns the target T2, PARP-1 enzyme (Homo sapiens, UniProt P09874).
T2 construct: purchased Trevigen, Gaithersburg, Md
Nature of the assay: Purified PARP-1 enzyme inhibition assay (Trevigen kit, 96 well ELISA plates). Type of assay: biochemical. On the procedure:
Effect of Tetracyclic 1H-indeno[1,2-b]pyridine-2(5H)-one analogs on PARP Activity in purified PARP-1 enzyme assay
The potency of inhibition on purified PARP-1 enzyme was subsequently determined for selected compounds, and the potency was compared with INO-1001. The assay was performed in 96 well ELISA plates according to instructions provided with a commercially available PARP-1 inhibition assay kit (Trevigen, Gaithersburg, Md.). Briefly, wells were coated with 1 mg/ml histone (50 μl/well) at 4° C. overnight. Plates were then washed four times with PBS and then blocked by adding 50 μl Strep-Diluent (supplied with the kit). After incubation (1 h, 25° C.), the plates were washed four times with PBS. Appropriate dilutions of compound was combined with 2×PARP cocktail (1.95 mM NAD^+, 50 μM biotinylated NAD^+ in 50 mM TRIS pH 8.0, 25 mM MgCl2) and high specific activity PARP enzyme (both were supplied with the kit) in a volume of 50 μl. The reaction was allowed to proceed for 30 min at room temperature. After 4 washes in PBS, incorporated biotin was detected by peroxidase-conjugated streptavidin (1:500 dilution) and TACS Sapphire substrate. EC50 and IC50 values were determined from a dose-response curve.

SMILES strings stand for the structures. Where a name gives a salt, the structure may show the parent alone.

T2 sequence (P09874 whole entry): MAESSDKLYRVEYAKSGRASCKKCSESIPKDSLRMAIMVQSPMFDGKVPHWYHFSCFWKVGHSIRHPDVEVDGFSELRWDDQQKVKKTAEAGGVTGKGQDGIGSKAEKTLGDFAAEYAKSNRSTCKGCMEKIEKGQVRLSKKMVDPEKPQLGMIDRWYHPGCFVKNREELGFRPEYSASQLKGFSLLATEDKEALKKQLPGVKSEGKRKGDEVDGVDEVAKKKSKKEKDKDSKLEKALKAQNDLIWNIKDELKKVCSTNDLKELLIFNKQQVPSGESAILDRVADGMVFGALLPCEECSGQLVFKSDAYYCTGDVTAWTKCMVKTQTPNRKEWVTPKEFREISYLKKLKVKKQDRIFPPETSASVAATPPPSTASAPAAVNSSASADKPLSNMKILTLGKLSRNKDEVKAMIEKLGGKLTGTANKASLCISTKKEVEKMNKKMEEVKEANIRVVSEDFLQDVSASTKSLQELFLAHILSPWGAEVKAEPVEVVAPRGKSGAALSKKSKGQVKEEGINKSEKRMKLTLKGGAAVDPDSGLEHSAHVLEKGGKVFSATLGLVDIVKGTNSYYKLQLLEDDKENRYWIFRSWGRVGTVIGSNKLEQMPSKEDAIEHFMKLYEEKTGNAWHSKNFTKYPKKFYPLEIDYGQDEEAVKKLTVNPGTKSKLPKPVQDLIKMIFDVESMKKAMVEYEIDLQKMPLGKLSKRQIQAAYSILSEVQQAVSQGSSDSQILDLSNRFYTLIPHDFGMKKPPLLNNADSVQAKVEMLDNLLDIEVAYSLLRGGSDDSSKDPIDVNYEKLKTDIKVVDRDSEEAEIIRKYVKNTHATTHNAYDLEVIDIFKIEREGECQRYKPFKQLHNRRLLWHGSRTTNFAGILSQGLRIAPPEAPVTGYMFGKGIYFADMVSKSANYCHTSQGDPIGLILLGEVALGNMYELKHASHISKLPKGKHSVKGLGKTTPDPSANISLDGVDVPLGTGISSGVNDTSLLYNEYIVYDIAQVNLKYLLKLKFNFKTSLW
T1 sequence (P11103 whole entry): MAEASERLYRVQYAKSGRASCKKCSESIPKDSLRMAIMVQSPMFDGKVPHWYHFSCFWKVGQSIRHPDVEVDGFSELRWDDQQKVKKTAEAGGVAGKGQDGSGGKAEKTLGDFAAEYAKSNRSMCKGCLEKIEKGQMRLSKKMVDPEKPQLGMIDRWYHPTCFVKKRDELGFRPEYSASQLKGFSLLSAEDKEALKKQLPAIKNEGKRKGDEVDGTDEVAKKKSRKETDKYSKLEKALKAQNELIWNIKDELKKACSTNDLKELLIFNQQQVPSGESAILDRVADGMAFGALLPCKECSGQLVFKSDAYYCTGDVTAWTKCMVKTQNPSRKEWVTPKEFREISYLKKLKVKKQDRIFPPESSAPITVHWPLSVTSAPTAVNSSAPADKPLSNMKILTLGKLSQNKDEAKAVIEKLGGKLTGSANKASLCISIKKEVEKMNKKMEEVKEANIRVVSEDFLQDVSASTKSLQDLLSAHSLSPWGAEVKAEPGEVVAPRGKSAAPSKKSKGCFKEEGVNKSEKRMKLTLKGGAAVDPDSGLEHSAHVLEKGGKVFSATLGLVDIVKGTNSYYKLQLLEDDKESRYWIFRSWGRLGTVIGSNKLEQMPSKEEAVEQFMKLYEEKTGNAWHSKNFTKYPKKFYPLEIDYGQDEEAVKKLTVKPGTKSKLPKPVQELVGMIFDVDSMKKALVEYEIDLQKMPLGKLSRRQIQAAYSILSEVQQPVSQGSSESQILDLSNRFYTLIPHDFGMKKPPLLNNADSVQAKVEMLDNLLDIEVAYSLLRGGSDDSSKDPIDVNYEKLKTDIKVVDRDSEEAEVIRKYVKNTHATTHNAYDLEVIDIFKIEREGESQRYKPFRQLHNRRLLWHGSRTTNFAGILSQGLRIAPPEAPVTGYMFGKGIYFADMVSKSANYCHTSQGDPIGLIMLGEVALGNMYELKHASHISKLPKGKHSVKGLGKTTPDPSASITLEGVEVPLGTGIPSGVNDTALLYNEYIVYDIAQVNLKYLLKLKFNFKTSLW

Usually EC50 stands for the concentration that produces a half-maximal response. Usually IC50 stands for the concentration needed to halve the response being measured. On to `O=c1[nH]c2c(c3c1CCCC3)Cc1c(CN3CCC(O)CC3)cccc1-2` [Example 1, 10-((4-hydroxypiperidin-1-yl)methyl)-3,4,6,11-tetrahydro-1H-indeno[1,2-c]isoquinolin-5(2H)-one], for which the EC50 at PARP turned out to be 11.3 nM. On PARP-1 enzyme, this molecule showed an IC50 of 3.83 nM.

Consider `O=c1[nH]c2c(c3c1CCCC3)Cc1c(CN3CCCCC3)cccc1-2` [Example 2, 10-(piperidin-1-ylmethyl)-3,4,6,11-tetrahydro-1H-indeno[1,2-c]isoquinolin-5(2H)-one], for which, at PARP, the EC50 came to 1.52 nM. The molecule also had an IC50 at PARP-1 enzyme of 5.15 nM.

On PARP-1 enzyme, `O=c1[nH]c2c(c3c1CCCC3)Cc1c(CN3CCC(O)CC3)cccc1-2` [Example 3, 10-((4-hydroxypiperidin-1-yl)methyl)-3,4,6,11-tetrahydro-1H-indeno[1,2-c]isoquinolin-5(2H)-one hydrochloride] came in with an IC50 of 11.3 nM.

For `CCOC1CCN(Cc2cccc3c2Cc2c-3[nH]c(=O)c3c2CCCC3)CC1` [Example 9, 10-((4-ethoxypiperidin-1-yl)methyl)-3,4,6,11-tetrahydro-1H-indeno[1,2-c]isoquinolin-5(2H)-one], the EC50 at PARP was found to be 12.7 nM. The molecule further displayed an IC50 on PARP-1 enzyme of 93.9 nM.

Regarding `CC1CCN(Cc2cccc3c2Cc2c-3[nH]c(=O)c3c2CCCC3)CC1` [Example 20, 10-((4-methylpiperidin-1-yl)methyl)-3,4,6,11-tetrahydro-1H-indeno[1,2-c]isoquinolin-5(2H)-one mesylate], the EC50 at PARP came out at 4.1 nM. This molecule had an IC50 against PARP-1 enzyme of 5.2 nM.

Consider `O=c1[nH]c2c(c3c1CCCC3)Cc1c(CN3CCC(N4CCCC4)CC3)cccc1-2` [Example 23, 10-((4-(pyrrolidin-1-yl)piperidin-1-yl)methyl)-3,4,6,11-tetrahydro-1H-indeno[1,2-c]isoquinolin-5(2H)-one], for which the EC50 at PARP was 20.9 nM. The molecule also had an IC50 at PARP-1 enzyme of 12.7 nM.

For `O=c1[nH]c2c(c3c1CCCC3)Cc1c(CNC3CCCC3)cccc1-2` [Example 26, 10-((cyclopentylamino)methyl)-3,4,6,11-tetrahydro-1H-indeno[1,2-c]isoquinolin-5(2H)-one], the EC50 at PARP was 5 nM. Further, the IC50 against PARP-1 enzyme is 3.4 nM.

In the case of `C[C@@H]1CN(c2cccc3c2Cc2c-3[nH]c(=O)c3c2CCCC3)C[C@H](C)O1` [Example 32, 10-(2,6-dimethylmorpholino)-3,4,6,11-tetrahydro-1H-indeno[1,2-c]isoquinolin-5(2H)-one], the EC50 on PARP was found to be 100 nM. Besides, the midpoint of inhibition on PARP-1 enzyme, the IC50, lay at 23.1 nM.

Consider `CCCN1CCN(Cc2ccc3c(c2)Cc2c-3[nH]c(=O)c3c2CCCC3)CC1` [Example 34, 9-((4-propylpiperazin-1-yl)methyl)-3,4,6,11-tetrahydro-M-indeno[1,2-c]isoquinolin-5(2H)-one], for which, at PARP, the EC50 amounted to 200 nM.

In the case of `COCCN1CCN(Cc2ccc3c(c2)Cc2c-3[nH]c(=O)c3c2CCCC3)CC1` [Example 35, 9-((4-(2-methoxyethyl)piperazin-1-yl)methyl)-3,4,6,11-tetrahydro-1H-indeno[1,2-c]isoquinolin-5(2H)-one], the half-maximal effective concentration (EC50) at PARP is 300 nM.

As to `COCCNCc1ccc2c(c1)Cc1c-2[nH]c(=O)c2c1CCCC2` [Example 36, 9-((2-methoxyethylamino)methyl)-3,4,6,11-tetrahydro-1H-indeno[1,2-c]isoquinolin-5(2H)-one], the EC50 on PARP is 50 nM. Besides, half-maximal inhibition on PARP-1 enzyme (IC50) required 8.9 nM.

As to `O=c1[nH]c2c(c3c1CCCC3)Cc1cc(CN3CCOCC3)ccc1-2` [Example 37, 9-(morpholinomethyl)-3,4,6,1′-tetrahydro-4H-indeno[1,2-c]isoquinolin-5(2H)-one], the EC50 at PARP was found to be 300 nM.

Take `O=c1[nH]c2c(c3c1CCCC3)Cc1cc(CN3CCC(O)CC3)ccc1-2` [Example 38, 9-((4-hydroxypiperidin-1-yl)methyl)-3,4,6,11-tetrahydro-1H-indeno[1,2-c]isoquinolin-5(2H)-one]: on PARP, the EC50 stood at 300 nM.

`O=c1[nH]c2c(c3c1CCCC3)Cc1cc(CN3CCCC3)ccc1-2` [Example 39, 9-(pyrrolidin-1-ylmethyl)-3,4,6,11-tetrahydro-1H-indeno[1,2-c]isoquinolin-5(2H)-one]: the EC50 at PARP stood at 100 nM.

For the molecule `O=c1[nH]c2c(c3c1CCCC3)Cc1cc(CNC3CCCC3)ccc1-2` [Example 40, 9-((cyclopentylamino)methyl)-3,4,6,11-tetrahydro-1H-indeno[1,2-c]isoquinolin-5(2H)-one], at PARP, the EC50 turned out to be 60 nM.

Take `CCCN1CCN(c2cccc3c2Cc2c-3[nH]c(=O)c3c2CCCC3)CC1` [Example 41, 10-(4-propylpiperazin-1-yl)-3,4,6,11-tetrahydro-1H-indeno[1,2-c]isoquinolin-5(2H)-one]: the EC50 on PARP stood at 45 nM. The molecule also registered an IC50 on PARP-1 enzyme of 6.3 nM.

For the molecule `COCCN1CCN(c2cccc3c2Cc2c-3[nH]c(=O)c3c2CCCC3)CC1` [Example 43, 10-(4-(2-methoxyethyl)piperazin-1-yl)-3,4,6,11-tetrahydro-1H-indeno[1,2-c]isoquinolin-5(2H)-one], the EC50 on PARP worked out at 9 nM. Moreover, at PARP-1 enzyme, half-maximal inhibition (IC50) was put at 8.1 nM.

In the case of `CCCCN1CCN(Cc2ccc3c(c2)Cc2c-3[nH]c(=O)c3c2CCCC3)CC1` [Example 44, 9-((4-butylpiperazin-1-yl)methyl)-3,4,6,11-tetrahydro-4H-indeno[1,2-c]isoquinolin-5(2H)-one], on PARP, the EC50 turned out to be 200 nM.

With `O=c1[nH]c2c(c3c1CCCC3)Cc1cc(CNCCN3CCOCC3)ccc1-2` [Example 45, 9-((2-morpholinoethylamino)methyl)-3,4,6,11-tetrahydro-1H-indeno[1,2-c]isoquinolin-5(2H)-one], on PARP, the EC50 was 25 nM. 5.5 nM corresponded to half-maximal inhibition at PARP-1 enzyme (IC50).

With `CC(C)(N)c1cccc2c1Cc1c-2[nH]c(=O)c2c1CCCC2` [Example 46, 10-(2-aminopropan-2-yl)-3,4,6,11-tetrahydro-1H-indeno[1,2-c]isoquinolin-5(2H)-one], the EC50 at PARP was determined as 8 nM.

As to `O=c1[nH]c2c(c3ccsc13)Cc1c(CN3CCC(C(F)(F)F)CC3)cccc1-2` [Example 47, 9-((4-(trifluoromethyl)piperidin-1-yl)methyl)-5,10-dihydro-4H-indeno[1,2-b]thieno[3,2-d]pyridin-4-one], the EC50 at PARP is 9 nM.

Take `O=c1[nH]c2c(c3ccsc13)Cc1c(CNC3CCCC3)cccc1-2` [Example 48, 9-((cyclopentylamino)methyl)-5,10-dihydro-4H-indeno[1,2-b]thieno[3,2-d]pyridin-4-one]: the EC50 at PARP came to 10 nM. In addition, half-maximal inhibition against PARP-1 enzyme (IC50) was put at 27 nM.

For `O=c1[nH]c2c(c3sccc13)Cc1c(CN3CCC(C(F)(F)F)CC3)cccc1-2` [Example 54, 9-((4-(trifluoromethyl)piperidin-1-yl)methyl)-5,10-dihydro-4H-indeno[1,2-b]thieno[2,3-d]pyridin-4-one], the EC50 at PARP is > 500 nM.

Regarding `O=c1[nH]c2c(c3ncccc13)Cc1c(CO)cccc1-2` [Example 57, 10-(hydroxymethyl)-6,11-dihydro-5H-indeno[1,2-h][1,6]naphthyridin-5-one], the EC50 at PARP worked out at 334 nM.

Regarding `COC(=O)c1cccc2c1Cc1c-2[nH]c(=O)c2c1CCCC2` [Example 63, methyl 5-oxo-2,3,4,5,6,11-hexahydro-1H-indeno[1,2-c]isoquinoline-10-carboxylate], the EC50 at PARP was 100 nM.

On to `CCN(CC)Cc1ccc2c(c1)Cc1c-2[nH]c(=O)c2c1CCCC2` [Example 64, 9-((diethylamino)methyl)-3,4,6,11-tetrahydro-1H-indeno[1,2-c]isoquinolin-5(2H)-one], for which the EC50 on PARP turned out to be 4.48 nM.

Take `O=c1[nH]c2c(c3c1CCCC3)Cc1cc(CN3CCC(F)(F)CC3)ccc1-2` [Example 65, 9-((4,4-difluoropiperidin-1-yl)methyl)-3,4,6,11-tetrahydro-1H-indeno[1,2-c]isoquinolin-5(2H)-one]: the EC50 at PARP was 748 nM.

Regarding `O=c1[nH]c2c(c3c1CCCC3)Cc1cc(CN3CCC(F)CC3)ccc1-2` [Example 66, 9-((4-fluoropiperidin-1-yl)methyl)-3,4,6,11-tetrahydro-1H-indeno[1,2-c]isoquinolin-5(2H)-one], the EC50 on PARP was 37.5 nM.

The values above are taken from US20100261706A1, “SUBSTITUTED TETRACYCLIC 1H-INDENO [1,2-B]PYRIDINE-2(5H)-ONE ANALOGS THEREOF AND USES THEREOF” (INOTEK PHARMACEUTICALS CORPORATION, priority 2008, published 2010).
